In data set [1] the target is T1, FXR (Homo sapiens, UniProt Q96RI1).
T1 sequence (Q96RI1 262-486 limits assumed): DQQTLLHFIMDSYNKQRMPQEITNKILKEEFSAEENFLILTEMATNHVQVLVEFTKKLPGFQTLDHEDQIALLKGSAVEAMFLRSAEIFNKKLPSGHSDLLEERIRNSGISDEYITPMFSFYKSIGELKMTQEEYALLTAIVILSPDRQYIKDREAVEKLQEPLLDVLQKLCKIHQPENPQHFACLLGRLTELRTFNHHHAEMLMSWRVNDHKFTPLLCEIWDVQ
Put plainly: FXR TR-FRET binding assay (DY246 fluorescent probe). The conditions noted are these: for inhibition at 0.164 µM: at 164 nM; for IC50: mean ± SE. The method, then: The FXR TR-FRET binding assay was performed as previously described^23 with modifications. […] The plate was spun down after a brief shake and incubated at room temperature for 20 min. The TR-FRET emission signals at 520 nm and 490 nm for each well was then collected using a PHERAstar plate reader (BMG LABTECH, Cary, N.C.) with an excitation wavelength of 337 nm, 100-μs delay time, and 200-μs integration time. The 520 nm/490 nm ratio from each well was then calculated. […] The % inhibition of tested chemicals at given concentration was calculated based on negative and positive controls using equation 1.

Data set [2] deals with GeneBLAzer FXR-UAS-bla HEK 293T cells. As to conditions: for GB FXR Cell Cyto % Inh.: human, 16 h.
Procedure: (§2) To examine if certain chemical antagonistic effect was caused by cytotoxicity, the same GeneBLAzer FXR cells were used to perform cytotoxicity assay. This assay was set up like the FXR agonistic assay, with the exception of signal reading. Instead of detecting the reporter activities, CellTiter-Glo® assay was used to detect cell viability. DMSO with cells or without cells group were served as negative (0% Inhibition) or positive (100% Inhibition), respectively.
(§3) Cytotoxicity assays were performed side-by-side with the FXR agonistic assay using GeneBLAzer FXR-UAS-bla HEK 293T cells with CellTiter-Glo® Luminescent Cell Viability Assay reagent (Promega). Briefly, cells were maintained in DMEM supplemented with 10% dialyzed FBS, 0.1 mM non-essential amino acids, 25 mM HEPES, 100 μg/ml of hygromycin B, 100 μg/ml of zeocin, 100 units/ml penicillin and 100 μg/ml streptomycin in regular tissue culture flasks. […] As a positive control, the wells in column 24 of each plate were filled with 30 μL assay medium along with 0.5% DMSO. The final DMSO concentration was 0.5% in each assay well. After a 16 h incubation in a cell culture incubator at 37° C., the cell plates were cooled at room temperature for 20 min and then CellTiter-Glo® reagent 20 μl/well was added followed by an incubation for 20 min in the dark to allow the development of optimal luminescence signal. The luminescence signal from each well in plates was collected with an Envision plate reader equipped with Ultra-sensitive Luminescence detector. The DMSO group and no cell group served as negative (0% activation) and positive (100% activation) controls, respectively. The % inhibition was calculated using equation 4 below.
Data set [3] addresses T1, FXR. Put plainly: GeneBLAzer FXR cell-based antagonistic assay (in presence of 400 nM GW4064). The conditions noted are these: for IC50: with 400 nM GW4064, read-out: GB FXR Cell Anta. IC50. More on the design: the Gal4 DBD was fused to the LBD of FXR in this assay; host or cells: GeneBLAzer FXR-UAS-bla HEK 293T cells. On the procedure:
A GeneBLAzer FXR cell-based assay was used to investigate the cellular activities of the 1,3,4-trisubstituted-pyrazol-4-carboxamide analogs. The assay detects the levels of a […] reporter controlled by a promoter containing the binding site of the DNA binding domain (DBD) of the GAL4 transcription factor; the Gal4 DBD was fused to the LBD of FXR in this assay.^35
(§1) FXR transactivation assays were performed using GeneBLAzer FXR-UAS-bla HEK 293T cells (Invitrogen). Cells were maintained according to the manufacturer's instructions. […] Plates were then incubated in dark for 90 min at room temperature before measuring the fluorescent emissions at 460 nm and 535 nm (using excitation at 400 nm) with an Envision plate reader with bottom read capacity. After background signal subtraction for individual emission channels, emission signals at 460 and 535 nm from each well were used to determine the ratio of 460 nm/535 nm. […] The % activation was calculated using equation 2.
The % inhibition was calculated using equation 3.

Data set [4] has as its target T1, FXR. Put plainly: GeneBLAzer FXR cell-based agonistic assay. As to conditions: without GW4064, 16 h. Further details: the Gal4 DBD was fused to the LBD of FXR in this assay; host or cells: GeneBLAzer FXR-UAS-bla HEK 293T cells. The method, then: The reporter assays were performed after a16 h incubation.
as §1

The subject of data set [5] is GeneBLAzer FXR-UAS-bla HEK 293T cells. Put plainly: Cytotoxicity assay in GeneBLAzer FXR cells (CellTiter-Glo). As to conditions: class symbol NT.
Procedure: as §2, §3
Setting [6] is: read-out: FXR TR-FRET Binding % Inh.
[7] abbreviates: read-out: GB FXR Cell Anta. % Inh.

Structures are written as SMILES. Like-named read-outs stand apart in the source and are kept apart here.

With `COc1cccc(Cn2cc(C(=O)Nc3ccc(C)c(S(=O)(=O)N4CCOCC4)c3)c(-c3ccc(C)cc3)n2)c1` [Compound 4j, 1-(3-Methoxybenzyl)-N-(4-methyl-3-(morpholinosulfonyl)phenyl)-3-(p-tolyl)-1H-pyrazole-4-carboxamide], the inhibition at 0.164 µM at FXR [1] (setting [6]) turned out to be 130 ± 5.4%. Also, the IC50 on FXR [1] was 7.5 nM; on FXR [3], 468 ± 8.4 nM. Also, the “fold more potent than Z26476908 in FXR TR-FRET binding assay” value on FXR [1] (ratio of IC50 values) is listed as 5.26 fold. In addition, the “cytotoxicity” value in data set [2] was “no cytotoxicity”. Besides, the “FXR antagonistic activity, SAR statement in words” value (shortened to “FXR antagonistic activity”) at FXR [3] is listed as “enhanced antagonistic activity”. Also, on FXR [3] (ratio of IC50 values), the “fold more potent than Z26476908 in antagonistic assay” value was determined as 4.59 fold. The inhibition at 40 µM on FXR [3] (setting [7]) stood at 98.9 ± 4.3%. Also, the “FXR agonistic activity” value at FXR [4] is “no FXR agonistic activity”.
For `COc1cccc(-c2nn(C(C)C)cc2C(=O)Nc2ccc(C)c(S(=O)(=O)N3CCOCC3)c2)c1` [Compound 4n, 1-Isopropyl-3-(3-methoxyphenyl)-N-(4-methyl-3-(morpholinosulfonyl)phenyl)-1H-pyrazole-4-carboxamide], the inhibition at 13.3 µM on FXR [1] (setting [6]) came out at 150 ± 6.9%. The IC50 at FXR [1] turned out to be 160 ± 22.6 nM; on FXR [3], 3490 ± 640 nM. In addition, the “GB FXR Cell Cyto % Inh.” value in data set [2] (4.4 μM) stood at 10.8 ± 0.2%. The inhibition at 40 µM at FXR [3] (setting [7]) came out at 97.8 ± 1.5%.
As to `CC(C)c1onc(-c2c(Cl)cccc2Cl)c1COc1ccc(/C=C/c2cccc(C(=O)O)c2)c(Cl)c1` [GW4064], the “GB FXR Cell Cyto % Inh.” value in data set [5] is on record as “NT (NT: Not toxic (toxicity less than 5%))”.
As to `Cc1ccc(-c2nn(CCCCO)cc2C(=O)Nc2ccc(C)c(S(=O)(=O)N3CCOCC3)c2)cc1` [Compound 4l, 1-(4-Hydroxybutyl)-N-(4-methyl-3-(morpholinosulfonyl)phenyl)-3-(p-tolyl)-1H-pyrazole-4-carboxamide], at FXR [1] (at 493 nM, read-out: FXR TR-FRET Binding % Inh.), the inhibition at 0.493 µM came to 89.3 ± 0.1%. In addition, the IC50 at FXR [1] came out at 130 ± 16 nM; at FXR [3], 2610 ± 290 nM. Moreover, the “GB FXR Cell Cyto % Inh.” value in data set [2] (40 μM) amounted to 5.9 ± 0.2%. Besides, the inhibition at 40 µM at FXR [3] (setting [7]) is 97.6 ± 3.7%.
Take `CCCCn1cc(C(=O)Nc2ccc(C)c(S(=O)(=O)N3CCOCC3)c2)c(-c2ccc(C)cc2)n1` [Compound 4g, 1-Butyl-N-(4-methyl-3-(morpholinosulfonyl)phenyl)-3-(p-tolyl)-1H-pyrazole-4-carboxamide]: at FXR [1] (at 1.5 μM, read-out: FXR TR-FRET Binding % Inh.), the inhibition at 1.5 µM was found to be 130.1 ± 0.7%. The same compound came in with an IC50 at FXR [1] of 52.5 ± 4.1 nM. Also, in data set [2] (4.4 μM), the “GB FXR Cell Cyto % Inh.” value is 10.3 ± 0.3%. In addition, on FXR [3], the “FXR antagonistic activity” value is on record as “retention of the antagonistic activity” and the IC50 turned out to be 11510 ± 70 nM. Also, the inhibition at 20 µM at FXR [3] (setting [7]) is 97.9 ± 8.1%.
Take `COc1cccc(Cn2cc(CNc3ccc(C)c(S(=O)(=O)N4CCOCC4)c3)c(C(C)C)n2)c1` [Compound 9-2, N-((3-Isopropyl-1-(3-methoxybenzyl)-1H-pyrazol-4-yl)methyl)-4-methyl-3-(morpholinosulfonyl)aniline]: the inhibition at 4.4 µM at FXR [1] (at 4.4 μM, read-out: FXR TR-FRET Binding % Inh.) was 72.5 ± 2.7%. The IC50 at FXR [1] was found to be 2310 ± 320 nM; on FXR [3], 27800 ± 1540 nM. In data set [2] (40 μM), the “GB FXR Cell Cyto % Inh.” value is 13.9 ± 0.6 (40 μM) %. Also, on FXR [3] (setting [7]), the inhibition at 40 µM stood at 64.8 ± 1.9%.
Consider `Cc1ccc(-c2nn(-c3nc4ccccc4s3)cc2C(=O)Nc2ccc(C)c(S(=O)(=O)N3CCOCC3)c2)cc1` [Compound 4e, 1-(Benzo[d]thiazol-2-yl)-N-(4-methyl-3-(morpholinosulfonyl)phenyl)-3-(p-tolyl)-1H-pyrazole-4-carboxamide], for which the inhibition at 0.164 µM on FXR [1] (setting [6]) came to 102 ± 2.8%. Moreover, the IC50 amounted to 17.7 ± 0.4 nM on FXR [1] and 7910 ± 1160 nM at FXR [3]. On FXR [1] (text says FXR antagonistic activity / potency in hFXR, figures fit TR-FRET IC50), the “fold improvement of activity compared to Z26476908” value is on record as 3 fold. For the same compound, the “GB FXR Cell Cyto % Inh.” value in data set [2] (13.3 μM) is given as 11.5 ± 0.2 (13.3 μM) %. Moreover, the inhibition at 40 µM at FXR [3] (setting [7]) turned out to be 79.1 ± 2.4%.
Take `Cc1ccc(-c2nn(C(C)C)cc2CNc2ccc(C)c(S(=O)(=O)N3CCOCC3)c2)cc1` [Compound 9-1, N-((1-Isopropyl-3-(p-tolyl)-1H-pyrazol-4-yl)methyl)-4-methyl-3-(morpholinosulfonyl)aniline]: at FXR [1] (setting [6]), the inhibition at 13.3 µM amounted to 99.5 ± 2.6%. The compound further gave an IC50 at FXR [1] of 2040 ± 20 nM. In data set [2] (40 μM), the “GB FXR Cell Cyto % Inh.” value was 10.5 ± 0.3%. Moreover, the inhibition at 40 µM at FXR [3] (setting [7]) is 36.8 ± 0.3%.
Take `Cc1ccc(-c2nn(Cc3ccc4ccccc4c3)cc2C(=O)Nc2ccc(C)c(S(=O)(=O)N3CCOCC3)c2)cc1` [Compound 4h, N-(4-Methyl-3-(morpholinosulfonyl)phenyl)-1-(naphthalen-2-ylmethyl)-3-(p-tolyl)-1H-pyrazole-4-carboxamide]: at FXR [1] (setting [6]), the inhibition at 0.164 µM turned out to be 97.8 ± 1.2%. The same compound came in with an IC50 on FXR [1] of 10.2 ± 1.6 nM. In data set [2] (4.4 μM), the “GB FXR Cell Cyto % Inh.” value is 7.9 ± 0.3 (4.4 μM) %. Also, at FXR [3], the “FXR antagonistic activity” value is given as “enhanced antagonistic activity” and the IC50 is 844 ± 10.3 nM. Also, the inhibition at 40 µM at FXR [3] (setting [7]) was 84.4 ± 4.1%.
On to `Cc1ccc(-c2nn(C(C)C)cc2C(=O)N(C)c2ccc(C)c(S(=O)(=O)N3CCOCC3)c2)cc1` [Compound 8-1, 1-Isopropyl-N-methyl-N-(4-methyl-3-(morpholinosulfonyl)phenyl)-3-(p-tolyl)-1H-pyrazole-4-carboxamide], for which the inhibition at 40 µM on FXR [1] (at 40 μM, read-out: FXR TR-FRET Binding % Inh.) is 133 ± 6.2%; on FXR [3] (setting [7]), 86.4 ± 2.8%. For the same compound, the IC50 on FXR [1] came out at 489 ± 21.2 nM; on FXR [3], 16200 nM. Further, in data set [2] (40 μM), the “GB FXR Cell Cyto % Inh.” value came out at 15.0 ± 0.7%. Moreover, the “activity against FXR at 1 μM” value on FXR [3] (at 1 μM) is given as “weak activity”.
With `C[C@H](CCC(=O)O)[C@H]1CC[C@H]2[C@@H]3CC[C@@H]4C[C@H](O)CC[C@]4(C)[C@H]3CC[C@]12C` [Lithocholic Acid, lithocholic acid], the “GB FXR Cell Cyto % Inh.” value in data set [5] is listed as “NT (NT: Not toxic (toxicity less than 5%))”.

One may read the IC50 as the concentration that inhibits the measured activity by half.

The values are drawn from patent US10611729B2, “Farnesoid X receptor antagonists” (City of Hope, priority 2014, dated 2020).
